PMC9458059, “Design, Synthesis and Biological Evaluation of New Carbohydrate-Based Coumarin Derivatives as Selective Carbonic Anhydrase IX Inhibitors via “Click” Reaction” (Molecules, 2022)
Where two headings read alike, the source gives them in different places.

Columns and labels:
MDA-MB-231 cells = experiment: Cell viability MTT assay, MDA-MB-231; type: cell-based; settings: Homo sapiens
Protocol: (§1) In the present study, the potential cytotoxicity of compounds 10a–10p was evaluated in vitro by MTT assay. […] So, half of each cell line were subjected to hypoxic conditions (0.5% O2, 5% CO2 and 94.5% N2) for inducing the expression of CA IX and the other half were incubated under normal conditions (normoxia). Subsequently, all synthesized derivatives were screened at a concentration of 100 μM to test their cytotoxicity in mentioned above cells.
(§2) The two human cancer cell lines were cultivated for 24 h at 37 °C in a 96-well plate. Subsequently, different concentrations of inhibitors were added to 96-well plate and then was incubated for 96 hours. After the MTT solution was added to per well, cancer cells were further incubated for 4 h at 37 °C. Finally, formazan crystals were dissolved by using DMSO. The cancer cells were from American Type Culture Collection.

HT-29 cells = experiment: Cell viability MTT assay, HT-29; type: cell-based; settings: Homo sapiens
Protocol: as §1, §2

CAIX = settings: reported coumarins, Figure 1; cited from earlier work
[1] = Metabolic stability in mouse liver microsomes; settings: mouse, liver microsomes
hCA I = target: T1, hCA I (Homo sapiens, UniProt P00915); experiment: CA inhibition by the esterase assay, hCA I; type: biochemical; settings: human recombinant enzyme, 4-nitrophenylacetate as substrate
T1 construct: purchased
T1 sequence (P00915 whole entry): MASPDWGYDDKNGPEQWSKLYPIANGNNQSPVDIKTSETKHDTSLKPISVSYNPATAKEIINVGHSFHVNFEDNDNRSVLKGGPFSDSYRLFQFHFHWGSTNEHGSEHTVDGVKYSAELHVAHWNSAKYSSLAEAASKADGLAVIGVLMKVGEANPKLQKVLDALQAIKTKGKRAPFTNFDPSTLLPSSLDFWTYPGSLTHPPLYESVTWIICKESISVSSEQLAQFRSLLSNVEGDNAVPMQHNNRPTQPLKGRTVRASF
Protocol: (§3) The esterase assay was used for testing the inhibitory activities of target compounds against carbonic anhydrases. […] Next, the stock solution of inhibitor was diluted to the specified concentration by using analysis buffer. […] In addition, the purchased CA was diluted with analysis buffer and added to 96-well plates. Next, different concentrations of inhibitors were also added to 96-well plates. To form the inhibitors and enzymes complex, E-I solutions were preincubated together for 4 h before the test at room temperature. Meanwhile, the nonenzymatic hydrolysis rates were tested by the blank control experiments. The absorbances were determined by using multifunctional enzyme marking instrument.

hCA IX = target: T2, hCA IX (Homo sapiens, UniProt Q16790); experiment: CA inhibition by the esterase assay, hCA IX; type: biochemical; settings: for IC50: human recombinant enzyme, esterase assay, 4-nitrophenylacetate as substrate; for Selectivity Ratio hCA I/hCA IX / Selectivity Ratio hCA II/hCA IX: ratio of IC50 values
T2 construct: purchased
Protocol: as §3

hCA II = hCA II (Homo sapiens, UniProt P00918); experiment: CA inhibition by the esterase assay, hCA II; type: biochemical; settings: human recombinant enzyme, 4-nitrophenylacetate as substrate
Protocol: as §3

CAI = settings: reported coumarins, Figure 1; cited from earlier work
[2] = hypoxia (0.5% O2, 5% CO2 and 94.5% N2), read-out: Cell Viability (%) MDA-MB-231 Hypoxia
[3] = normoxia, read-out: Cell Viability (%) MDA-MB-231 Normoxia
[4] = hypoxia (0.5% O2, 5% CO2 and 94.5% N2), read-out: Cell Viability (%) HT-29 Hypoxia
[5] = normoxia, read-out: Cell Viability (%) HT-29 Normoxia

Row | SMILES | CLint scaled at 1 μM [1] [mL/min/kg] | half-life at 1 μM [1] [h] | IC50 (hCA I) [µM] | IC50 (hCA IX) [µM] | Selectivity Ratio hCA I/hCA IX (hCA IX) | Selectivity Ratio hCA II/hCA IX (hCA IX) | IC50 (hCA II) [µM] | melting point [°C] | viability at 100 µM (MDA-MB-231 cells; [2]) [%] | viability at 100 µM (MDA-MB-231 cells; [3]) [%] | viability at 100 µM (HT-29 cells; [4]) [%] | viability at 100 µM (HT-29 cells; [5]) [%] | Ki (CAIX) [µM] | Ki (CAI) [µM]
1 | CC(=O)Nc1nnc(S(N)(=O)=O)s1 [AAZ, acetazolamide, reference compound] |  |  |  |  |  |  |  |  | 80.3 | 84.7 | 80.1 | 85.2 |  | 
2 | O=c1ccc2ccccc2o1 [Compound 2] |  |  |  |  |  |  |  |  |  |  |  |  | > 50 | 
3 | N[C@@H]1[C@@H](O)[C@H](O)[C@@H](CO)O[C@H]1n1cc(COc2ccc3ccc(=O)oc3c2)nn1 [Compound 10d, 7-[(1-β-. D-glucosaminogly-1H-1,2,3-triazol-4-yl)methoxy]-2H-chromen-2-one] | 4.26 | 21.5 | 51.5 | 0.057 | 904 | 575 | 32.8 | 131.3 to 134.2 | 38.9 | 60.2 | 45.6 | 57 |  | 
4 | O=c1ccc2ccc(OCc3cn([C@@H]4OC[C@H](O)[C@H](O)[C@H]4O)nn3)cc2o1 [Compound 10f, 7-[(1-β-. L-arabinopyranosyl-1H-1,2,3-triazol-4-yl)methoxy]-2H-chromen-2-one] | 3.75 | 24.4 | 65.6 | 0.042 | 1562 | 755 | 31.7 | 133.1 to 135.1 | 33.8 | 65.6 | 38.1 | 48.7 |  | 
5 | Cc1cc(=O)oc2cc(OCc3cn([C@@H]4O[C@H](CO)[C@H](O)[C@H](O)[C@H]4O)nn3)ccc12 [Compound 10j, 7-[(1-β-. D-galactopyranosyl-1H-1,2,3-triazol-4-yl)methoxy]-4-methyl-2H-chromen-2-one] | 3.5 | 26.1 | 44.1 | 0.098 | 450 | 164 | 16.1 | 124.2 to 126.6 | 40.9 | 64.7 | 46.4 | 60.2 |  | 
6 | Cc1cc(=O)oc2cc(OCc3cn([C@@H]4O[C@H](CO)[C@@H](O)[C@H](O)[C@@H]4O)nn3)ccc12 [Compound 10k, 7-[(1-β-. D-mannopyranosyl-1H-1,2,3-triazol-4-yl)methoxy]-4-methyl-2H-chromen-2-one] | 3.25 | 28.1 | 49 | 0.042 | 1167 | 548 | 23 | 121.5 to 122.6 | 33.7 | 61.3 | 40.3 | 52.3 |  | 
7 | Cc1cc(=O)oc2cc(OCc3cn([C@@H]4O[C@H](CO)[C@@H](O)[C@H](O)[C@H]4N)nn3)ccc12 [Compound 10l, 7-[(1-β-. D-glucosaminogly-1H-1,2,3-triazol-4-yl)methoxy]-4-methyl-2H-chromen-2-one] | 3.07 | 29.8 | 56.9 | 0.032 | 1778 | 981 | 31.4 | 126.2 to 128.4 | 38.5 | 65.1 | 44.8 | 51.2 |  | 
8 | Cc1cc(=O)oc2cc(OCc3cn([C@H]4O[C@@H](C)[C@H](O)[C@@H](O)[C@H]4O)nn3)ccc12 [Compound 10o, 7-[(1-β-. L-rhamnosyl-1H-1,2,3-triazol-4-yl)methoxy]-4-methyl-2H-chromen-2-one] | 3.13 | 29.2 | 57.5 | 0.096 | 599 | 334 | 32.1 | 125.5 to 127.7 | 38.7 | 60.3 | 33.3 | 45.7 |  | 
9 | Cc1cc(=O)oc2cc(OCc3cn([C@@H]4O[C@H](CO)[C@@H](O)[C@H]4O)nn3)ccc12 [Compound 10p, 7-[(1-β-. D-ribofuranosyl-1H-1,2,3-triazol-4-yl)methoxy]-4-methyl-2H-chromen-2-one] | 2.98 | 30.7 | 63.4 | 0.098 | 647 | 229 | 22.4 | 123.2 to 125.6 | 35.2 | 73.1 | 36.7 | 63.1 |  | 
10 | O=c1ccc2ccccc2s1 [Thiocoumarin 3, thiocoumarin] |  |  |  |  |  |  |  |  |  |  |  |  |  | > 100

Further lines, with some results ahead:

Row | CLint scaled at 1 μM [1] [mL/min/kg] | half-life at 1 μM [1] [h] | IC50 (hCA I) [µM] | IC50 (hCA IX) [µM] | Selectivity Ratio hCA I/hCA IX (hCA IX) | Selectivity Ratio hCA II/hCA IX (hCA IX) | IC50 (hCA II) [µM] | melting point [°C] | SMILES | viability at 100 µM (MDA-MB-231 cells; [2]) [%] | viability at 100 µM (MDA-MB-231 cells; [3]) [%] | viability at 100 µM (HT-29 cells; [4]) [%] | viability at 100 µM (HT-29 cells; [5]) [%] | Ki (CAIX) [µM] | Ki (CAI) [µM]
11 | 4.33 | 21.1 | 24.3 | 0.074 | 328 | 423 | 31.3 |  | O=c1ccc2ccc(OCc3cn([C@@H]4O[C@H](CO)[C@H](O)[C@H](O)[C@H]4O)nn3)cc2o1 [Compound 10b, 7-[(1-β-. D-galactopyranosyl-1H-1,2,3-triazol-4-yl)methoxy]-2H-chromen-2-one] | 33.7 | 61.4 | 48.7 | 50.5 |  | 
12 | 4.04 | 22.6 | 42.3 | 0.061 | 693 | 344 | 21 | 128.4 to 130.6 | O=c1ccc2ccc(OCc3cn([C@@H]4OC[C@@H](O)[C@H](O)[C@H]4O)nn3)cc2o1 [Compound 10e, 7-[(1-β-. D-xylopyranosyl-1H-1,2,3-triazol-4-yl)methoxy]-2H-chromen-2-one] | 42.9 | 58.2 | 39.5 | 49.3 |  | 
13 | 3.65 | 25 | 36.5 | 0.124 | 294 | 255 | 31.6 | 126.1 to 129.6 | C[C@@H]1O[C@H](n2cc(COc3ccc4ccc(=O)oc4c3)nn2)[C@H](O)[C@H](O)[C@H]1O [Compound 10g, 7-[(1-β-. L-rhamnosyl-1H-1,2,3-triazol-4-yl)methoxy]-2H-chromen-2-one] | 36.1 | 53.2 | 38.7 | 42.4 |  | 
14 | 3.83 | 23.9 | 32.1 | 0.084 | 382 | 167 | 14 | 127.9 to 130.2 | Cc1cc(=O)oc2cc(OCc3cn([C@@H]4O[C@H](CO)[C@@H](O)[C@H](O)[C@H]4O)nn3)ccc12 [Compound 10i, 7-[(1-β-. D-glucopyranosyl-1H-1,2,3-triazol-4-yl)methoxy]-4-methyl-2H-chromen-2-one] | 33.2 | 65.2 | 42.6 | 48.5 |  | 
15 | 3.38 | 27.1 | 43.9 | 0.067 | 655 | 337 | 22.6 | 122.4 to 123.9 | Cc1cc(=O)oc2cc(OCc3cn([C@@H]4OC[C@@H](O)[C@H](O)[C@H]4O)nn3)ccc12 [Compound 10m, 7-[(1-β-. D-xylopyranosyl-1H-1,2,3-triazol-4-yl)methoxy]-4-methyl-2H-chromen-2-one] | 39.8 | 53.2 | 35.5 | 40.5 |  | 
16 | 3.56 | 25.7 | 35.7 | 0.045 | 793 | 271 | 12.2 | 129.3 to 132.5 | Cc1cc(=O)oc2cc(OCc3cn([C@@H]4OC[C@H](O)[C@H](O)[C@H]4O)nn3)ccc12 [Compound 10n, 7-[(1-β-. L-arabinopyranosyl-1H-1,2,3-triazol-4-yl)methoxy]-4-methyl-2H-chromen-2-one] | 38.5 | 65.7 | 38.2 | 41.5 |  | 
